Reference: publication PMC6219668 (Oncotarget, 2018)

Tested on: panel of nearly 500 cancer cell lines
Test: Cancer Cell Line Encyclopedia profiling, 3-day CellTiter-Glo
Format: cell-based
Parameters: Amax: unit not given here

## CC(=O)c1c(C)c2cnc(Nc3ccc(N4CCNCC4)cn3)nc2n(C2CCCC2)c1=O [Palbociclib, reference compound]
Homo sapiens, P3HR-1
  EC50: > 8 µM
Homo sapiens, P31-FUJ
  EC50: > 8 µM
Homo sapiens, PANC-03-27
  EC50: > 8 µM
Homo sapiens, PLC-PRF-5
  EC50: 1.79 µM
Homo sapiens, Panc 02.03
  EC50: 1.14 µM
Homo sapiens, Panc 04.03
  EC50: > 8 µM
Homo sapiens, Panc1005
  EC50: > 8 µM
Homo sapiens, Pfeiffer
  EC50: 6.95 µM
Homo sapiens, RL95-2
  EC50: > 8 µM
Homo sapiens, RT-112
  EC50: 2.29 µM
Homo sapiens, RVH-421
  EC50: 0.689 µM
Homo sapiens, Raji
  EC50: > 8 µM
Homo sapiens, SAOS-2
  EC50: > 8 µM
Homo sapiens, SBC-5
  EC50: 1.11 µM
Homo sapiens, SCC-25
  EC50: 0.782 µM
Homo sapiens, SCaBER
  EC50: > 8 µM
Homo sapiens, SF-126
  EC50: > 8 µM
Homo sapiens, SF-295
  EC50: > 8 µM
Homo sapiens, SHP77
  EC50: > 8 µM
Homo sapiens, SJRH30
  EC50: > 8 µM
Homo sapiens, SJSA-1
  EC50: > 8 µM
Homo sapiens, SK-BR-3
  EC50: > 8 µM
Homo sapiens, SK-CO-1
  EC50: > 8 µM
Homo sapiens, SK-ES1
  EC50: 6.37 µM
Homo sapiens, SK-HEP1
  EC50: 0.516 µM
Homo sapiens, SK-LU-1
  EC50: > 8 µM
Homo sapiens, SK-MEL-2
  EC50: > 8 µM
Homo sapiens, SK-MEL-5
  EC50: > 8 µM
Homo sapiens, SK-MEL-24
  EC50: > 8 µM
Homo sapiens, SK-MEL-30
  EC50: > 8 µM
Homo sapiens, SK-MM-2
  EC50: 2.62 µM
Homo sapiens, SK-N-AS
  EC50: 1.11 µM
Homo sapiens, SK-N-DZ
  EC50: 2.73 µM
Homo sapiens, SK-N-SH
  EC50: 1.25 µM
Homo sapiens, SK-OV-3
  EC50: 2.22 µM
Homo sapiens, SKNBE2
  EC50: 4.99 µM
Homo sapiens, SNU1
  EC50: > 8 µM
Homo sapiens, SNU-16
  EC50: > 8 µM
Homo sapiens, SNU-182
  EC50: > 8 µM
Homo sapiens, SNU-423
  EC50: 2.01 µM
Homo sapiens, SNU-449
  EC50: > 8 µM
Homo sapiens, SNU-C2B
  EC50: > 8 µM
Homo sapiens, SU-DHL10
  EC50: 3.42 µM
Homo sapiens, SU-DHL-8
  EC50: 0.475 µM
Homo sapiens, SU.86.86
  EC50: > 8 µM
Homo sapiens, SUP-T1
  EC50: > 8 µM
Homo sapiens, SW48
  EC50: > 8 µM
Homo sapiens, SW480
  EC50: 1.24 µM
Homo sapiens, SW780
  EC50: 0.832 µM
Homo sapiens, SW900
  EC50: > 8 µM
Homo sapiens, SW1353
  EC50: > 8 µM
Homo sapiens, SW1990
  EC50: 5.78 µM
Homo sapiens, SW-403
  EC50: > 8 µM
Homo sapiens, SW-620
  EC50: 2.93 µM
Homo sapiens, T47D
  EC50: > 8 µM
Homo sapiens, T98G
  EC50: > 8 µM
Homo sapiens, TCC-SUP
  EC50: 2.08 µM
Homo sapiens, TOV21G
  EC50: > 8 µM
Homo sapiens, TOV112D
  EC50: 2.03 µM
Homo sapiens, Toledo
  EC50: > 8 µM
Homo sapiens, U2OS
  EC50: 3.62 µM
Homo sapiens, U-87 MG
  EC50: 2.01 µM
Homo sapiens, U-118-MG
  EC50: 0.523 µM
Homo sapiens, U-937
  EC50: > 8 µM
Homo sapiens, UACC-812
  EC50: > 8 µM
Homo sapiens, UMUC3
  EC50: > 8 µM
Homo sapiens, YKG-1
  EC50: 7.39 µM
Homo sapiens, ZR-75-30
  EC50: > 8 µM
Hs766T
  EC50: 1.52 µM
IGR-39
  EC50: > 8 µM
JHH-2
  EC50: > 8 µM
JHH-4
  EC50: > 8 µM
JMSU-1
  EC50: 1.32 µM
KE-97
  EC50: 2.26 µM
KMRC-1
  EC50: > 8 µM
KMS-26
  EC50: 1.33 µM
LOU-NH91
  EC50: > 8 µM
LUDLU-1
  EC50: 0.74 µM
NCI-H322
  EC50: > 8 µM
NCI-H1568
  EC50: 2.63 µM
NCI-H1915
  EC50: > 8 µM
NCI-H2023
  EC50: 1.12 µM
NCI-H2172
  EC50: > 8 µM
OCUM1
  EC50: 1.37 µM
OE21
  EC50: 4.75 µM
ONCO-DG-1
  EC50: > 8 µM
PK-59
  EC50: 1.51 µM
PL45
  EC50: > 8 µM
SH-10-TC
  EC50: > 8 µM
SUIT-2
  EC50: 1.18 µM
SUP-M2
  EC50: > 8 µM
SW579
  EC50: 1.3 µM
SW1271
  EC50: > 8 µM
TC-71
  EC50: > 8 µM
a172 (central_nervous_system)
  Amax: 3.605
a204 (soft_tissue)
  Amax: -34.4227
a253 (salivary_gland)
  Amax: 3.868
a375 (skin)
  Amax: -26.2658
a2058 (skin)
  Amax: 2.616
a2780 (ovary)
  Amax: -39.663
gb1 (central_nervous_system)
  Amax: -42.437
Gciy (stomach)
  Amax: -7.059
Gct (soft_tissue)
  Amax: -52.5722
glc82 (lung)
  Amax: -19.1977
gms10 (central_nervous_system)
  Amax: -27.0424
h4 (central_nervous_system)
  Amax: -32.9184
hcc15 (lung)
  Amax: -12.0125
hcc56 (large_intestine)
  Amax: -4.352
hcc70 (breast)
  Amax: -11.029
hcc78 (lung)
  Amax: -19.9044
hcc1187 (breast)
  Amax: -9.361
hcc1569 (breast)
  Amax: -39.1174
hcc1806 (breast)
  Amax: 0.7921
hcc1954 (breast)
  Amax: -54.5847
hcc2935 (lung)
  Amax: -14.5087
hcc4006 (lung)
  Amax: -19.6287
hct15 (large_intestine)
  Amax: -2.41
hct116 (large_intestine)
  Amax: 1.94
hec1a (endometrium)
  Amax: -22.7551
hec1b (endometrium)
  Amax: -58.5184
hec59 (endometrium)
  Amax: -33.0687
hec151 (endometrium)
  Amax: -3.536
hec251 (endometrium)
  Amax: -0.6256
hec265 (endometrium)
  Amax: 2.121
hel9217 (haematopoietic_and_lymphoid_tissue)
  Amax: 11.0391
hep3b217 (liver)
  Amax: 6.257
hepg2 (liver)
  Amax: -38.1063
heya8 (ovary)
  Amax: -39.168
hgc27 (stomach)
  Amax: -60.1752
Hh (haematopoietic_and_lymphoid_tissue)
  Amax: -43.6309
Hle (liver)
  Amax: -2.411
Hlf (liver)
  Amax: 2.5318
hmc18 (breast)
  Amax: -23.3461
Hmcb (skin)
  Amax: -32.1017
Hos (bone)
  Amax: -5.005
Hpac (pancreas)
  Amax: -39.6565
hs229t (lung)
  Amax: -46.3597
hs294t (skin)
  Amax: -3.363
hs578t (breast)
  Amax: -24.7522
hs683 (central_nervous_system)
  Amax: -14.5926
hs695t (skin)
  Amax: -1.411
hs739t (breast)
  Amax: -16.3381
hs746t (stomach)
  Amax: -17.4326
hs766t (pancreas)
  Amax: -19.984
hs840t (upper_aerodigestive_tract)
  Amax: -48.5098
hs852t (skin)
  Amax: -23.0246
hs895t (skin)
  Amax: -52.8812
hs936t (skin)
  Amax: -33.7794
hs939t (skin)
  Amax: -41.6297
hs944t (skin)
  Amax: -2.178
hsc2 (upper_aerodigestive_tract)
  Amax: 2.874
ht29 (large_intestine)
  Amax: -25.1424
ht144 (skin)
  Amax: 4.385
ht1080 (soft_tissue)
  Amax: 5.952
ht1197 (urinary_tract)
  Amax: 6.185
ht1376 (urinary_tract)
  Amax: 5.627
Ht (haematopoietic_and_lymphoid_tissue)
  Amax: 15.5049
hucct1 (biliary_tract)
  Amax: -2.064
huh1 (liver)
  Amax: -48.0113
hupt3 (pancreas)
  Amax: -32.9102
hupt4 (pancreas)
  Amax: -9.371
hut78 (haematopoietic_and_lymphoid_tissue)
  Amax: -6.156
Ialm (lung)
  Amax: 2.617
igr37 (skin)
  Amax: -4.699
igr39 (skin)
  Amax: 3.52
igrov1 (ovary)
  Amax: 1.295
imr32 (autonomic_ganglia)
  Amax: -46.7636
ipc298 (skin)
  Amax: -1.835
istmes1 (pleura)
  Amax: -16.4542
istmes2 (pleura)
  Amax: -52.8976
j82 (urinary_tract)
  Amax: -1.0373
jhh2 (liver)
  Amax: -0.7698
jhh4 (liver)
  Amax: 0.2039
jhh6 (liver)
  Amax: 2.0754
jhos2 (ovary)
  Amax: 7.671
jhos4 (ovary)
  Amax: 13.7773
jm1 (haematopoietic_and_lymphoid_tissue)
  Amax: -48.4258
jmsu1 (urinary_tract)
  Amax: -46.3166
k029ax (skin)
  Amax: -20.9241
kals1 (central_nervous_system)
  Amax: 3.749
karpas299 (haematopoietic_and_lymphoid_tissue)
  Amax: -53.2153
karpas422 (haematopoietic_and_lymphoid_tissue)
  Amax: 0.8347
ke39 (stomach)
  Amax: -57.8035
ke97 (haematopoietic_and_lymphoid_tissue)
  Amax: -62.2019
kg1 (haematopoietic_and_lymphoid_tissue)
  Amax: 7.475
Kle (endometrium)
  Amax: -0.3583
kmbc2 (urinary_tract)
  Amax: -20.7254
kmrc1 (kidney)
  Amax: -29.7335
kms12bm (haematopoietic_and_lymphoid_tissue)
  Amax: -27.7827
kms26 (haematopoietic_and_lymphoid_tissue)
  Amax: -78.7112
kns42 (central_nervous_system)
  Amax: -28.8816
